A short description of data set [1]: Cytotoxicity against human SH-SY5Y cells assessed as cell viability after 24 hrs by MTT assay. In kind it is cell-based. The note with it: read-out: Activity.
For a further data set, the system named is SH-SY5Y. The data set can be described thus: Cytotoxicity against human SH-SY5Y cells assessed as cell viability after 24 hrs by LDH release assay. Format: cell-based.

The values below come from ChEMBL document CHEMBL4251568, “A routinely used protein staining dye acts as an inhibitor of wild type and mutant alpha-synuclein aggregation and modulator of neurotoxicity” (Eur J Med Chem, 2018).

Structures are written as SMILES.

On to `CCOc1ccc(Nc2ccc(/C(=C3C=C/C(=[N+](/CC)Cc4cccc(S(=O)(=O)[O-])c4)C=C/3C)c3ccc(N(CC)Cc4cccc(S(=O)(=O)[O-])c4)cc3C)cc2)cc1.[Na+]` [BRILLIANT BLUE G], for which the viability at 24 h in data set [1] came to 19%. The Activity entry in the data set on SH-SY5Y was “Toxic”.
For `CCOc1ccc(Nc2ccc(C(=C3C=CC(=[N+](CC)Cc4cccc(S(=O)(=O)[O-])c4)C=C3)c3ccc(N(CC)Cc4cccc(S(=O)(=O)[O-])c4)cc3)cc2)cc1.[Na+]`, in that order: 99% and “Non-Toxic”.
